Experimental data reported in publication doi:10.1101/2022.03.12.484055v1 (biorxiv, 2022).

molecular target: T1, ASIC1 (hASIC1; ASIC1a as primary isoform in tsA-201 cells) (Homo sapiens, UniProt P78348); assay: cell-based; details: tsA201, read-out: % inhibition @ 30 µM
T1 sequence (P78348 1-528): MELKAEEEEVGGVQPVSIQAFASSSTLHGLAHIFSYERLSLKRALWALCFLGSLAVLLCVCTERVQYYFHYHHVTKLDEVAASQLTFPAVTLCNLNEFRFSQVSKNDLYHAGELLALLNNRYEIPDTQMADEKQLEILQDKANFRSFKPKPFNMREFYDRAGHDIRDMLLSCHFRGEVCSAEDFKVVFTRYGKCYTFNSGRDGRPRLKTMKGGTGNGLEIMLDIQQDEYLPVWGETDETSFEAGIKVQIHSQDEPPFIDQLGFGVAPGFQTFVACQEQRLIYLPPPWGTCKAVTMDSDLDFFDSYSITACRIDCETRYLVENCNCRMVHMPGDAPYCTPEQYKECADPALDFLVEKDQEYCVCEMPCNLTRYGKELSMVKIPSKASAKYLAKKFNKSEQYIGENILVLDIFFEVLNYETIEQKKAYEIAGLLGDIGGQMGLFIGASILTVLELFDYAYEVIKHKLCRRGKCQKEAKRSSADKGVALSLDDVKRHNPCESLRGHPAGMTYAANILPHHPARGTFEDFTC

| Structure (SMILES) | inhibition at 30 µM |
| --- | --- |
| N=C(N)NC(=O)c1nc(Cl)c(N2CCCOCC2)nc1N [compound 83, 83] | 67% |
| N=C(N)NC(=O)c1nc(-c2cc3ccccc3o2)c(N2CCCOCC2)nc1N [compound 86, 86] | 26% |
| N=C(N)NC(=O)c1nc(-c2ccc(C(F)(F)F)cc2)c(N2CCCC2)nc1N [compound 78, 78] | 78% |
| N=C(N)NC(=O)c1nc(-c2cncnc2)c(N2CCCOCC2)nc1N [compound 84, 84] | 14% |

Next, values leading:

| inhibition at 30 µM | Structure (SMILES) |
| --- | --- |
| 8% | COc1ncc(-c2nc(C(=O)NC(=N)N)c(N)nc2N2CCCOCC2)cn1 [compound 85, 85] |
| 65% | N=C(N)NC(=O)c1nc(-c2ccc(C(F)(F)F)cc2)c(C2CC2)nc1N [compound 79, 79] |
| 75% | N=C(N)NC(=O)c1nc(Cl)c(N2CCOCC2)nc1N [compound 80, 80] |

molecular target: T1, ASIC1 (hASIC1; ASIC1a as primary isoform in tsA-201 cells); assay: cell-based; details: tsA201, read-out: % inhibition @ 30 µM; remark: another data set of the same source

| Structure (SMILES) | inhibition at 30 µM |
| --- | --- |
| N=C(N)NC(=O)c1ccccn1 [compound 93, 93] | 22% |
| Cc1ccc(S(=O)(=O)NCCNc2nc(N)c(C(=O)NC(=N)N)nc2Cl)cc1 [compound 91] | 79% |
| CC(C)c1ccc(C(=O)NC(=N)N)cc1S(C)(=O)=O [compound 95, 95] | 37% |
| N=C(N)NC(=O)c1nc(Cl)c(NCc2ccccc2)nc1N [compound 87] | 90% |
| N=C(N)NC(=O)c1ccccc1 [compound 92, 92] | 22% |

Continued, values first:

| inhibition at 30 µM | Structure (SMILES) |
| --- | --- |
| 80% | N#CCCNc1nc(N)c(C(=O)NC(=N)N)nc1Cl [compound 89] |
| 94% | N=C(NC(=O)c1nc(Cl)c(N)nc1N)Nc1ccccc1 [compound 96, 96] |
| 81% | N=C(N)NC(=O)c1nc(Cl)c(NCCP(=O)(O)O)nc1N [compound 90, 90] |
| 91% | N=C(N)NC(=O)c1nc(Cl)c(NCCc2ccccc2)nc1N [compound 88] |
| 95% | N=C(N)NC(=O)c1nc(I)c(N)nc1N [compound 97] |

molecular target: T1, ASIC1 (hASIC1; ASIC1a as primary isoform in tsA-201 cells); assay: automated patch clamp, single concentration; type: cell-based; details: tsA201, read-out: % inhibition @ 30 µM

| inhibition at 30 µM | Structure (SMILES) |
| --- | --- |
| 76 ± 3% | N=C(N)NC(=O)c1nc(-c2cc3cc(F)cc(F)c3o2)c(N)nc1N [compound 35, 35] |
| 75 ± 1% | N=C(N)NC(=O)c1nc(-c2ccco2)c(N)nc1N [compound 14, 14] |

molecular target: T1, ASIC1 (hASIC1; ASIC1a as primary isoform in tsA-201 cells); assay: cell-based; details: tsA201, read-out: % inhibition @ 30 µM; remark: another data set of the same source

| Structure (SMILES) | inhibition at 30 µM |
| --- | --- |
| N=C(N)NC(=O)c1nc(-c2cc3ccccc3o2)c(NCCc2ccccc2)nc1N [compound 66, 66] | 31% |
| N=C(N)NC(=O)c1nc(-c2cc3ccccc3o2)c(NCc2ccccc2)nc1N [compound 65, 65] | 39% |
| N=C(N)NC(=O)c1nc(-c2cc3ccccc3o2)c(NC2CCCC2)nc1N [compound 63, 63] | 22% |
| N=C(N)NC(=O)c1nc(-c2cc3ccccc3o2)c(NC2CCCCCC2)nc1N [compound 64, 64] | 10% |

Other lines, results leading:

| inhibition at 30 µM | Structure (SMILES) |
| --- | --- |
| 54% | N=C(N)NC(=O)c1nc(-c2cc3ccccc3o2)c(N2CCCCC2)nc1N [compound 60, 60] |
| 59% | N=C(N)NC(=O)c1nc(-c2cc3ccccc3o2)c(N2CCCC2)nc1N [compound 59, 59] |
| 46% | CCN(c1nc(N)c(C(=O)NC(=N)N)nc1-c1cc2ccccc2o1)C(C)C [compound 62, 62] |

molecular target: T1, ASIC1 (hASIC1; ASIC1a as primary isoform in tsA-201 cells); assay: cell-based; details: tsA201, read-out: % inhibition @ 30 µM; remark: another data set of the same source

| Structure (SMILES) | inhibition at 30 µM |
| --- | --- |
| Nc1nnc(-c2nc(-c3cc4ccccc4o3)c(N3CCCCCC3)nc2N)[nH]1 [compound 70, 70] | 15% |
| CC(C)Nc1ncc(-c2nc(C(=O)NC(=N)N)c(N)nc2N2CCCCCC2)cn1 [compound 75, 75] | 11% |
| Nc1noc(-c2nc(-c3cc4ccccc4o3)c(N3CCCCCC3)nc2N)n1 [compound 71, 71] | 8% |
| N=C(N)NC(=O)c1nc(-c2cnc(NCCO)nc2)c(N2CCCCCC2)nc1N [compound 76, 76] | 6% |
| Nc1nc(N2CCCCCC2)c(-c2cc3ccccc3o2)nc1C(=O)O [compound 68, 68] | 6% |
| N=C(N)NC(=O)c1nc(-c2cnc(N)nc2)c(N2CCCCCC2)nc1N [compound 73, 73] | 6% |
| CN(C)CCC(=O)c1nc(-c2cc3ccccc3o2)c(N2CCCCCC2)nc1N [compound 72, 72] | 31% |

Now from value to molecule:

| inhibition at 30 µM | Structure (SMILES) |
| --- | --- |
| 27% | CNc1ncc(-c2nc(C(=O)NC(=N)N)c(N)nc2N2CCCCCC2)cn1 [compound 74, 74] |
| 10% | CN(C)C(=O)c1nc(-c2cc3ccccc3o2)c(N2CCCCCC2)nc1N [compound 69, 69] |
| 9% | COC(=O)c1nc(-c2cc3ccccc3o2)c(N2CCCCCC2)nc1N [compound 67, 67] |

molecular target: T1, ASIC1 (hASIC1; ASIC1a as primary isoform in tsA-201 cells); assay: cell-based; details: tsA201, read-out: % inhibition @ 30 µM; remark: another data set of the same source

| Structure (SMILES) | inhibition at 30 µM |
| --- | --- |
| N=C(N)NC(=O)c1nc(-c2ccc3occc3c2)c(N)nc1N [compound 43, 43] | 59% |
| N=C(N)NC(=O)c1nc(-c2cc3cc(Br)ccc3o2)c(N)nc1N [compound 27, 27] | 45% |
| N=C(N)NC(=O)c1nc(-c2cc3ccccc3s2)c(N2CCCCCC2)nc1N [compound 19, 19] | 67% |
| COc1ccc2cc(-c3nc(C(=O)NC(=N)N)c(N)nc3N)oc2c1 [compound 33, 33] | 68% |
| COc1ncc(-c2nc(C(=O)NC(=N)N)c(N)nc2N2CCCCCC2)cn1 [compound 47] | 33% |
| CC(C)(C)c1ccc2oc(-c3nc(C(=O)NC(=N)N)c(N)nc3N3CCCCCC3)cc2c1 [compound 22, 22] | 44% |
| Cn1cc(-c2nc(C(=O)NC(=N)N)c(N)nc2N2CCCCCC2)cn1 [compound 50, 50] | 53% |
| N#Cc1ccc2oc(-c3nc(C(=O)NC(=N)N)c(N)nc3N)cc2c1 [compound 31, 31] | 30% |
| N=C(N)NC(=O)c1nc(-c2ccco2)c(N2CCCCCC2)nc1N [compound 15, 15] | 46% |
| N=C(N)NC(=O)c1nc(-c2cc3cnccc3o2)c(N2CCCCCC2)nc1N [compound 40, 40] | 21% |
| COc1ccc2oc(-c3nc(C(=O)NC(=N)N)c(N)nc3N3CCCCCC3)cc2c1 [compound 30, 30] | 35% |
| N=C(N)NC(=O)c1nc(-c2cc3ccccc3o2)c(N2CCCCCC2)nc1N [compound 17] | 64% |
| N=C(N)NC(=O)c1nc(-c2ccc3occc3c2)c(N2CCCCCC2)nc1N [compound 44, 44] | 23% |
| N=C(N)NC(=O)c1nc(-c2cc3cc(Cl)ccc3o2)c(N2CCCCCC2)nc1N [compound 26, 26] | 35% |
| N=C(N)NC(=O)c1nc(-c2ccc3c(c2)CCO3)c(N2CCCCCC2)nc1N [compound 42, 42] | 49% |
| N=C(N)NC(=O)c1nc(Cl)c(N2CCCCCC2)nc1N [compound 13, HMA] | 79% |
| N=C(N)NC(=O)c1nc(-c2cc3cc(Cl)ccc3o2)c(N)nc1N [compound 25, 25] | 69% |
| N=C(N)NC(=O)c1nc(-c2cc3cnccc3o2)c(N)nc1N [compound 39, 39] | 36% |
| Cc1ccc2oc(-c3nc(C(=O)NC(=N)N)c(N)nc3N)cc2c1 [compound 20, 20] | 65% |
| N=C(N)NC(=O)c1nc(-c2ccc(C(F)(F)F)cc2)c(N2CCCCCC2)nc1N [compound 49, 49] | 67% |
| N=C(N)NC(=O)c1nc(-c2cc3ncccc3o2)c(N)nc1N [compound 37, 37] | 17% |

Second part, the molecule after the results:

| inhibition at 30 µM | Structure (SMILES) |
| --- | --- |
| 34% | COc1ncc(-c2nc(C(=O)NC(=N)N)c(N)nc2N)cn1 [compound 46] |
| 22% | N=C(N)NC(=O)c1nc(-c2ccc3c(c2)CCO3)c(N)nc1N [compound 41, 41] |
| 88% | N=C(N)NC(=O)c1nc(Cl)c(N)nc1N [compound 11, amiloride] |
| 58% | N=C(N)NC(=O)c1nc(-c2cc3cc(F)ccc3o2)c(N2CCCCCC2)nc1N [compound 24, 24] |
| 45% | N=C(N)NC(=O)c1nc(-c2cc3ccccc3s2)c(N)nc1N [compound 18, 18] |
| 59% | N=C(N)NC(=O)c1nc(-c2cc3cc(Br)ccc3o2)c(N2CCCCCC2)nc1N [compound 28, 28] |
| 20% | N=C(N)NC(=O)c1nc(-c2cc3ncccc3o2)c(N2CCCCCC2)nc1N [compound 38, 38] |
| 69% | N=C(N)NC(=O)c1nc(-c2cc3cc(F)cc(F)c3o2)c(N2CCCCCC2)nc1N [compound 36, 36] |
| 64% | N#Cc1ccc2oc(-c3nc(C(=O)NC(=N)N)c(N)nc3N3CCCCCC3)cc2c1 [compound 32, 32] |
| 44% | N=C(N)NC(=O)c1nc(-c2ccc(C(F)(F)F)cc2)c(N)nc1N [compound 48, 48] |
| 25% | N=C(N)NC(=O)c1nc(-c2cncnc2)c(N2CCCCCC2)nc1N [compound 45, 45] |
